Reference: US20250230138A1, “COMPOUNDS HAVING A T-STRUCTURE FORMED BY AT LEAST FOUR CYCLES FOR USE IN THE TREATMENT OF CANCER AND OTHER INDICATIONS” (TheRas, Inc., priority 2022, published 2025)
pIC50: −log10 of the molar value. Where two headings read alike, the source gives them in different places.

Legend:
[1] = biological target: KRAS-PI3Kα interaction (KRAS-Q25A binding to avi-tagged full length PI3Kα) (Homo sapiens (Human), UniProt P42336); assay: Disrupting KRAS-PI3Kα interaction by SPR inhibition assay; settings: KRAS-Q25A at 20 μM, 25° C.
Chain of KRAS-PI3Kα interaction (KRAS-Q25A binding to avi-tagged full length PI3Kα) (P42336 whole entry, looked up, stated change not applied): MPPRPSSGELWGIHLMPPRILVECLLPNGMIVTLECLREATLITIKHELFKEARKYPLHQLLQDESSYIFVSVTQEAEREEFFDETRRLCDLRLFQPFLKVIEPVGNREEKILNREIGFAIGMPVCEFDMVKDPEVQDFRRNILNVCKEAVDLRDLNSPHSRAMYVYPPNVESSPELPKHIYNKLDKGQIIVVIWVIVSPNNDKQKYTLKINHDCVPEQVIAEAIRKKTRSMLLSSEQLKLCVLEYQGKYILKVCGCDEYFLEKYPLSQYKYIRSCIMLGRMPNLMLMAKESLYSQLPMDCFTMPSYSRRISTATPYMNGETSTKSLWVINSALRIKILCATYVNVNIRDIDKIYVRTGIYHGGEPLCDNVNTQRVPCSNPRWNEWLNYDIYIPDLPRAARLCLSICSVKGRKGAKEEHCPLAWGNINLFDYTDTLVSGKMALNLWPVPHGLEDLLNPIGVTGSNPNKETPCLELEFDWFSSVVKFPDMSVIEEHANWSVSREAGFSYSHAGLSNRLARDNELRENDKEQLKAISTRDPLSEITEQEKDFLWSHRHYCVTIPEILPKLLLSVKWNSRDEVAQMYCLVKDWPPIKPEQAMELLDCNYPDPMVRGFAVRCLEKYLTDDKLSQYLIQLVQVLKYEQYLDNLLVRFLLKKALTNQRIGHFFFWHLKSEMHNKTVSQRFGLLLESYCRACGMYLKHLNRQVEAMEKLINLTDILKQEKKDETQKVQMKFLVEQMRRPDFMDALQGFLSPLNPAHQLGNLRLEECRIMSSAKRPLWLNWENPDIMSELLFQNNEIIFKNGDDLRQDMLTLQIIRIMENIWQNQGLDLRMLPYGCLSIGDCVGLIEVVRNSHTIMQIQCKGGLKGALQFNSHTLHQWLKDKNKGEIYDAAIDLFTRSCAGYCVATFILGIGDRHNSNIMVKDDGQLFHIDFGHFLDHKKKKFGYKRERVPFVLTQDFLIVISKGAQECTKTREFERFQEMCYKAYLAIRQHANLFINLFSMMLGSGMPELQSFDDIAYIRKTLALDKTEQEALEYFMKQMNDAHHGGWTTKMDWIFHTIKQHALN
Chain of KRAS-PI3Kα interaction (KRAS-Q25A binding to avi-tagged full length PI3Kα) (P27986 whole entry partner, looked up): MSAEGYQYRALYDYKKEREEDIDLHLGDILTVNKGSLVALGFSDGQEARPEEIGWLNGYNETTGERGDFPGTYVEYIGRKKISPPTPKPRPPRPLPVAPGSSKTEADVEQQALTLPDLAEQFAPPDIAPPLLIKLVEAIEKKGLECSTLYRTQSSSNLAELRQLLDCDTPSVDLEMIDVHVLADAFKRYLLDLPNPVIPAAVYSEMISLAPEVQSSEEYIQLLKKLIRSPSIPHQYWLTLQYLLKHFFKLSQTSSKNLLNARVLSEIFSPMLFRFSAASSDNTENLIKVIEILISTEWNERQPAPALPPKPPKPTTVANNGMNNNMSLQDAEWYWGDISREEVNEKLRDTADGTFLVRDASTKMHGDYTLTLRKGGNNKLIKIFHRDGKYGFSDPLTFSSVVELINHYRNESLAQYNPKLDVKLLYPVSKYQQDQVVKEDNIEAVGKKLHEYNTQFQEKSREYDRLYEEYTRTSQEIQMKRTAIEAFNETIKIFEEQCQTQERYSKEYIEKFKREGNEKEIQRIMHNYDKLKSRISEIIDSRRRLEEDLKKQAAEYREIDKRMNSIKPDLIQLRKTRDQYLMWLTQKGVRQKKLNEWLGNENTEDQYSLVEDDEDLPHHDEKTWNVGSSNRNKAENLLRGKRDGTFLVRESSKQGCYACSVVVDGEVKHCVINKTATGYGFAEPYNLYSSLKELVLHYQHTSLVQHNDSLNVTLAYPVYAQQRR
Procedure: SPR binding experiments were collected on a Biacore 8K Instrument (Cytiva). Neutravidin (Pierce) was amine coupled to the carboxymethylated dextran surface of a CM5 sensor chip (Cytiva) using standard amine coupling chemistry. The CM5 chip surface was first activated with 0.1 M N-hydroxy succinimide and 0.4 M N-ethyl-N′-(3-dimethyl aminopropyl) carbodiimide at a flow rate of 20 μL/min using 20 mM HEPES pH 7.4, 150 mM NaCl as the running buffer. Next, neutravidin was diluted to 20 μg/mL in 10 mM sodium acetate (pH 4.5) and injected on all flow cells until a density of approximately 10,000 response units (RU) was immobilized. Activated amine groups were quenched with an injection of 1 M ethanolamine (pH 8.0). 300-500 RU of avi-tagged full length PI3Kα was captured on all flow cells in 20 mM HEPES pH 7.4, 150 mM NaCl, 5 mM MgCl2, 1 mM TCEP, 0.05% tween 20, 5% DMSO buffer. KRAS-Q25A at 20 μM was mixed with 8 concentrations of compound (50 nM-100 μM) and injected over the full-length PI3Kα at 30 μL/min and 25° C. Steady-state levels of KRAS binding were recorded and fit with a 4-parameter inhibition model to determine the IC50 values.

[2] = test system: pAKT in Tet-on KRAS G12D HeLa cells; assay: Cell-based pAKT HTRF assay in Tet-on KRAS G12D HeLa cells; settings: Tet-on KRAS G12D HeLa cells; read-out: pAKT inhibition IC50 in Tet-on KRAS G12D HeLa cells
Procedure: To determine the effectiveness of compounds in disrupting PIK3CA/KRAS signaling in cells, we implemented pAKT HTRF assay (Perkin-Elmer) in Tet-on KRAS G12D HeLa cells.
On Day 1, cells were seeded into 96-well plates at 2×10^4 cells/well in complete growth media (DMEM, 10% Tet-Screened FBS) supplemented with 200 ng/mL doxycycline.
On Day 2, cells were treated with compounds at 0.25% DMSO. The source plate was created with compounds diluted in media at 5-fold the final assay concentration. The compounds are run in a 9-point concentration curve starting at 75 μM, with a 3-fold dilution between concentrations. […] 20 μL was transferred onto the cell plates (final volume in wells was 100 μL). Plates were harvested after 30 min and 4 hr incubation by aspirating media and adding kit-supplied 1× supplemented lysis buffer to all wells (50 μL per well). This then changed to 4 hr only when compounds became covalent. Plates were then placed on a plate shaker and incubated at 850 rpm for an additional 30 min. The antibody mixture solution was prepared by diluting aliquoted d2 and Eu Cryptate antibodies 1:20 in kit supplied detection buffer, then mixed the diluted antibodies solutions (1:1 v:v). 4 μL of this solution was then added to a 384-well detection plate (Perkin Elmer; 6008230). Samples were homogenized by pipetting up and down and then transferred (16 μL of cell lysates) from the 96-well cell culture plate to two wells of the HTRF 384-well detection plate containing the antibody solution. Plates were centrifuged (524 g for 1 min) and allowed to incubate between 4 and 24 h at room temperature. The maximum signal is reached after 4 h incubation time and remains stable over a period of 24 hours. Therefore, readings can be made between 4 and 24 h of incubation. Plates were centrifuged again (524 g for 1 min), and analyzed on the EnVision plate reader using the following settings: Excitation 320 nm, Bandwidth […]; Emission 615 nm, Bandwidth […], Gain 100%, Flashes 100, Lag 60 μs.

[3] = biological target: Cys242 in human PIK3CA (157-299) (Homo sapiens (Human), UniProt P42336); assay: Covalent modification assay using MALDI-TOF MS; type: biochemical; settings: 4 h reaction time point; 3.33 μM protein target, 1:7.5 protein to compound ratio (compounds 1-852)
Chain of Cys242 in human PIK3CA (157-299) (P42336 157-299): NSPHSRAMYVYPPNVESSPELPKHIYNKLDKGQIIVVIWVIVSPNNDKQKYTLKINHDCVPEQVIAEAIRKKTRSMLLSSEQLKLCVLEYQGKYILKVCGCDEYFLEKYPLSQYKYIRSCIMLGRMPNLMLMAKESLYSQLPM
How it was run: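 PIK3CA (157-299) at 3.33 μM or 1 μM in 20 mM HEPES, 150 mM NaCl, 2 mM MgCl2, pH 7.3 was incubated with compound (from 10 mM DMSO stocks) in the dark at room temperature for 15 min, 30 min, 2 h or 4 h. Linear-mode MALDI-TOF peak heights gave percent modification.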

[4] = test system: pAKT in BT474 cells; assay: Cell-based pAKT HTRF assay in BT474 cells; settings: BT474 cells, 4 hr incubation, Compounds 10-999, read-out: pAKT inhibition IC50 in BT474 cells
How it was run: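 Cells are seeded on day 1 and dosed on day 2 with a 9-point curve (3 μM top, 3-fold). After 4 hr they are lysed and the lysate is mixed with d2- and Eu Cryptate-labelled antibodies. HTRF is read after 4–24 h at room temperature.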

| pIC50 [1] | pIC50 [2] | pIC50 ([4]; Homo sapiens, BT-474) | pIC50 [4] | Compound | % of modification [3] |
| --- | --- | --- | --- | --- | --- |
| < 4.60 | – | 5.52 to 6.00 | – | C=CC(=O)Nc1ccc2nc(-c3nc(-c4ccc5c(c4)CCNC5)c4ccsc4c3-c3ccc(F)cc3OCCOC)[nH]c2c1 [Compound 23, N-[2-[7-[4-fluoro-2-(2-methoxyethoxy)phenyl]-4-(1,2,3,4-tetrahydroisoquinolin-6-yl)thieno[3,2-c]pyridin-6-yl]-3H-benzimidazol-5-yl]prop-2-enamide] | A (percent of modification of PIK3CA protein ≥75%) |
| 4.60 to 5.30 | 5.00 to 6.00 | – | – | COCCOc1ccccc1-c1c(-c2cccc(Cl)c2)nc(-c2ccc3c(c2)CCNC3)c2ccsc12 [compound 6] | – |
| 4.60 to 5.30 | 5.00 to 6.00 | – | – | Fc1ccc(-c2c(-c3ccccc3)nc(-c3ccc4c(c3)CCNC4)c3ccsc23)c(OCc2ncccc2F)c1 [compound 7] | – |
| 4.60 to 5.30 | 5.00 to 6.00 | – | – | CCC(=O)NCc1cccc(-c2nc(-c3ccc4c(c3)CCNC4)c3ccsc3c2-c2ccc(F)cc2OCCOC)c1 [compound 9] | – |
| 4.60 to 5.30 | 5.00 to 6.00 | – | – | COCCOc1cc(F)ccc1-c1c(-c2cnn(CC(C)(C)C)c2)nc(-c2ccc3c(c2)CCNC3)c2ccsc12 [compound 13] | – |
| 4.60 to 5.30 | < 5.00 | – | – | COCCOc1cc(F)ccc1-c1c(-c2cccc(CNC(=O)C(C)C)c2)nc(-c2ccc3c(c2)CCNC3)c2ccsc12 [compound 14] | – |
| > 5.30 | 5.00 to 6.00 | – | – | COCCOc1cc(F)ccc1-c1c(-c2cccc(C(=O)N3CCCC3)c2)nc(-c2ccc3c(c2)CCNC3)c2ccsc12 [compound 15] | – |
| 4.60 to 5.30 | 5.00 to 6.00 | – | – | COCCOc1cc(F)ccc1-c1c(-c2cccc(CN)c2)nc(-c2ccc3c(c2)CCNC3)c2ccsc12 [compound 16] | – |
| 4.60 to 5.30 | 5.00 to 6.00 | – | – | COCCOc1cc(F)ccc1-c1c(-c2cccc(C(=O)NC(C)C)c2)nc(-c2ccc3c(c2)CCNC3)c2ccsc12 [compound 17] | – |
| > 5.30 | 5.00 to 6.00 | – | – | COCCOc1cc(F)ccc1-c1c(-c2cccc(CNC(=O)C(C)(C)C)c2)nc(-c2ccc3c(c2)CCNC3)c2ccsc12 [compound 18] | – |
| > 5.30 | < 5.00 | – | – | COCCOc1cc(F)ccc1-c1c(-c2cccc(CNC(=O)CC(C)(C)C)c2)nc(-c2ccc3c(c2)CCNC3)c2ccsc12 [compound 19] | – |
| 4.60 to 5.30 | – | – | – | C=CC(=O)NCCn1cc(-c2nc(-c3ccc4c(c3)CCNC4)c3ccsc3c2-c2ccc(F)cc2OCCOC)cn1 [compound 22] | B (50%<percent of modification <75%) |
| 4.60 to 5.30 | – | – | > 7.00 | C=CC(=O)N1CCC(n2cc(-c3nc(-c4ccc5c(c4)CCNC5)c4ccsc4c3-c3ccc(F)cc3OCCOC)cn2)C1 (stereo not shown) [compound 28] | A (percent of modification of PIK3CA protein ≥75%) |
| > 5.30 | 5.00 to 6.00 | – | – | CCC(=O)Nc1cccc(-c2nc(-c3ccc4c(c3)CCNC4)c3ccsc3c2-c2ccc(F)cc2OCCOC)c1 [compound 29] | – |
| > 5.30 | 5.00 to 6.00 | – | – | COCCOc1cc(F)ccc1-c1c(-c2cccc(NC(=O)C(C)C)c2)nc(-c2ccc3c(c2)CCNC3)c2ccsc12 [compound 33] | – |
| 4.60 to 5.30 | – | – | – | C=CC(=O)n1cnc(-c2nc(-c3ccc4c(c3)CCNC4)c3ccsc3c2-c2ccc(F)cc2OCCOC)c1 [compound 35] | D (percent of modification <25%) |

| pIC50 [1] | pIC50 [2] | pIC50 ([4]; Homo sapiens, BT-474) | pIC50 [4] | Compound | % of modification [3] |
| --- | --- | --- | --- | --- | --- |
| 4.60 to 5.30 | – | – | – | C=CC(=O)NCc1csc(-c2nc(-c3ccc4c(c3)CCNC4)c3ccsc3c2-c2ccc(F)cc2OCCOC)n1 [compound 38] | B (50%<percent of modification <75%) |
| 4.60 to 5.30 | 5.00 to 6.00 | – | – | COCCOc1cc(F)ccc1-c1c(-c2cnn(CCC(=O)NC(C)(C)C)c2)nc(-c2ccc3c(c2)CCNC3)c2ccsc12 [compound 41] | – |
| 4.60 to 5.30 | – | – | – | COCCOc1cc(F)ccc1-c1c(-c2ccc3cc[nH]c3c2)nc(-c2ccc3c(c2)CCNC3)c2ccsc12 [compound 45] | – |
| 4.60 to 5.30 | > 6.00 | – | – | C=CC(=O)N1CC(Cn2cc(-c3nc(-c4ccc5c(c4)CCNC5)c4ccsc4c3-c3ccc(F)cc3OCCOC)cn2)C1 [compound 48] | – |
| < 4.60 | – | – | 6.00 to 7.00 | C=CC(=O)N1CCC(n2cc(-c3nc(-c4cnn(C)c4)c4ccsc4c3-c3ccc(F)cc3OCCOC)cn2)CC1 [compound 49] | A (percent of modification of PIK3CA protein ≥75%) |
| 4.60 to 5.30 | – | – | > 7.00 | C=CC(=O)N1CCC(n2cc(-c3nc(-c4ccc5c(c4)CNC(=O)C5)c4ccsc4c3-c3ccc(F)cc3OCCOC)cn2)CC1 [compound 50] | A (percent of modification of PIK3CA protein ≥75%) |
| 4.60 to 5.30 | – | – | 6.00 to 7.00 | C=CC(=O)Nc1cccc(-c2nc(-c3cnn(C)c3)c3ccsc3c2-c2ccc(F)cc2OCCOC)c1 [compound 52] | A (percent of modification of PIK3CA protein ≥75%) |
| 4.60 to 5.30 | – | – | 6.00 to 7.00 | C=CC(=O)N1CC[C@H](n2cc(-c3nc(-c4cnn(C)c4)c4ccsc4c3-c3ccc(F)cc3OCCOC)cn2)C1 [compound 53] | A (percent of modification of PIK3CA protein ≥75%) |
| 4.60 to 5.30 | – | – | > 7.00 | C=CC(=O)N1CC[C@H](n2cc(-c3nc(-c4ccc5c(c4)CNC(=O)C5)c4ccsc4c3-c3ccc(F)cc3OCCOC)cn2)C1 [compound 54] | A (percent of modification of PIK3CA protein ≥75%) |
| 4.60 to 5.30 | – | – | 6.00 to 7.00 | C=CC(=O)NC1CC(n2cc(-c3nc(-c4ccc5c(c4)CCNC5)c4ccsc4c3-c3ccc(F)cc3OCCOC)cn2)C1 (stereo not shown) [compound 55] | A (percent of modification of PIK3CA protein ≥75%) |
| 4.60 to 5.30 | – | – | – | COCCOc1cc(F)ccc1-c1c(-c2cnn(C3CCN(C(=O)/C=C/CN(C)C)C3)c2)nc(-c2ccc3c(c2)CCNC3)c2ccsc12 (stereo not shown) [compound 56] | B (50%<percent of modification <75%) |
| < 4.60 | – | – | – | C=CC(=O)Nc1cccc(-c2nc(-c3ccc4c(c3)CCC(O)C4)c3ccsc3c2-c2ccc(F)cc2OCCOC)c1 (stereo not shown) [compound 57] | B (50%<percent of modification <75%) |
| > 5.30 | – | – | > 7.00 | C=CC(=O)N1CC[C@H](n2cc(-c3nc(-c4ccc5c(c4)CCNC5)c4ccsc4c3-c3ccc(F)cc3OCCOC)c(C)n2)C1 [compound 59] | A (percent of modification of PIK3CA protein ≥75%) |
| 4.60 to 5.30 | – | – | 6.00 to 7.00 | C=CC(=O)NC1CC(n2cc(-c3nc(-c4ccc5c(c4)CCNC5)c4ccsc4c3-c3ccc(F)cc3OCCOC)cn2)C1 (stereo not shown) [compound 60] | A (percent of modification of PIK3CA protein ≥75%) |
| > 5.30 | – | – | < 5.52 | COCCOc1cc(F)ccc1-c1c(-c2ccc3c(c2)CCN(C)C3)nc(-c2ccc3c(c2)CCNC3)c2ccsc12 [compound 229] | – |

| Compound | pIC50 [1] | pIC50 [2] | pIC50 ([4]; Homo sapiens, BT-474) | pIC50 [4] | % of modification [3] |
| --- | --- | --- | --- | --- | --- |
| COCCOc1cc(F)ccc1-c1c(-c2cccc(C#N)c2)nc(-c2ccc3c(c2)CCNC3)c2ccsc12 [Compound 8] | < 4.60 | < 5.00 | – | – | – |
